Experimental data reported in US8030342B2, “Dendritic polyamidoamine phthalocyanine derivative” (Nihon University, priority 2006, dated 2011).
Values joined by “and” are separate entries in the source; they are usually repeats but may differ in a detail not shown here. Equal entries are not always repeated.

Experiments:
Assay type in all cases: physicochemical
ESR spectra = assay: ESR spectra
Text: Also, the data on g value indicate that the dendritic PC generates radicals.

fluorescence spectra = settings: fluorescence maximum
UV-Vis spectra = assay: UV-Vis spectra; parameters: λmax: unit not given here; settings: for λmax: UV-Vis absorption maxima; for log ε: UV-Vis, at the λmax of the same line

g value (ESR spectra)	Fmax (fluorescence spectra)	λmax (UV-Vis spectra)	log ε (UV-Vis spectra)	Compound
1.9712 and 2.0245	625 and 700	687.50 and 654.00 and 624.50		c1ccc2c(c1)-c1nc-2nc2[nH]c(nc3nc(nc4[nH]c(n1)c1ccccc41)-c1ccccc1-3)c1ccccc21 [H2—PC]
1.9713 and 2.0245	780	769.00 and 747.00	4.2560 and 4.2054	O=C(O)c1cc2c(cc1C(=O)O)-c1nc-2nc2[n-]c(nc3nc(nc4[n-]c(n1)c1cc(C(=O)O)c(C(=O)O)cc41)-c1cc(C(=O)O)c(C(=O)O)cc1-3)c1cc(C(=O)O)c(C(=O)O)cc21.[Zn+2] [Zn—PC octacarboxylic acid, Zinc Phthalocyanine (PC) Octacarboxylic Acid]
1.9712 and 2.0245	715	655.50 and 607.00	4.5813 and 4.5391	c1ccc2c(c1)C1=NC2=Nc2c3ccccc3c3[n]2[Zn][n]2c(c4ccccc4c2=NC2=NC(=N3)c3ccccc32)=N1 [Zn—PC]
2.0245 and 1.9713	805	690.50 and 772.50		Zinc Phthalocyanine Tetracarboxylic Acid [Zn—PC tetracarboxylic acid]
